The values below come from patent US20100137375A1, “Emulsifiable Concentrate” (BASF SE, priority 2005, published 2010).

The test system of data set [1] is Colorado potato beetle (Leptinotarsa decemlineata). Description: Field trial against Colorado potato beetle in potatoes. The class given is in vivo. The note with it: 60 g AI/HA. As to the method: Performance of EC formulations according to the invention against the Colorado potato beetle (Leptinotarsa decemlineata) in potatoes
The trial was arranged in a randomized complete block design with three replications. Plots were 5 m long and one row (1 m) wide. Applications were conducted with a fournozzle row crop boom delivering side and overhead coverage, at 3-bar pressure and 400 l/ha. Numbers of larvae (L1/2) (L3/4) were recorded per plot at 2, 5 and 14 DAT (day after treatment) and a defoliation assessment was made at 14 DAT. Colorado potato beetle pressure was high resulting in complete defoliation in the controls at 19 DAT.

Data set [2] concerns Southern armyworm (Spodoptera eridania), third instar. The data set can be described thus: Lima bean leaf-dip test against Southern armyworm. The class given is in vivo. As to the method:
Performance of EC formulations according to the invention against Southern armyworm (Spodoptera eridania), third instar
A stock solution of metaflumizone formulation is diluted into a container of water. Lima bean leaves are dipped into treatment solutions and allowed to air-dry. A single treated leaf is placed topside-up onto water-moistened filter paper in multiple plastic petri dishes. Seven larvae are placed onto each leaf and then each arena is sealed with petri dish covers. Each treatment replicated 4-fold (1 replicate=1 petri dish arena). Following treatment application, infested plants are held in the laboratory under fluorescent lighting and constant 26° C. Larval mortality/morbidity (i.e., number dead/number tested) is assessed at 5 days post-treatment. The mortality levels based on number of live larve.

[3] abbreviates: larval mortality at 5 days post-treatment, Log Dose-Probit analysis.

The term LC50 denotes the concentration lethal to half of the exposed cells or organisms. In the case of `N#Cc1ccc(CC(=NNC(=O)Nc2ccc(OC(F)(F)F)cc2)c2cccc(C(F)(F)F)c2)cc1` [metaflumizone], in data set [1] (2 DAT), the “Mean # of L1/L2 per plot” value was “.3b” and the “Mean # of L3/L4 per plot” value is given as “.3b”. Also, in data set [1] (5 DAT), the “Mean # of L1/L2 per plot” value is 4b and the “Mean # of L3/L4 per plot” value was 2b. Further, in data set [1] (14 DAT), the “% Defoliation” value was 18a %, the “Mean # of L1/L2 per plot” value is “.3a” and the “Mean # of L3/L4 per plot” value was 7ab. In data set [2] (setting [3]), this compound had an LC50 of 1.50 ppm and an LC90 of 7.70 ppm. For the same compound, the “Biological Enhancement” value in data set [2] (relative to metaflumizone dispersed in water (standard control)) is on record as 1x (standard control).
